Data on three compounds can be found in publication PMC12678798, “Discovery of an allosteric binding site for anthraquinones at the human P2X4 receptor” (Nature Communications, 2025).

Where two headings read alike, the source gives them in different places.

On the set-up of series [1]: method as in not given. Conditions: ref not given; cited from earlier work.
The test system of series [2] is human P2X4 receptor. More on the design: method as in not given. Conditions: assay and ref not given; cited from earlier work.
The target in series [3] is human P2X4 receptor. On the set-up: method as in ref 10.1016/j.heliyon.2023.e21265. Conditions: SPR competition assay; ref 10.1016/j.heliyon.2023.e21265; read-out: Potency (IC50 value) at the human P2X4 receptor; cited from earlier work.
The next series deals with rat P2X4 receptors. More on the design: method as in not given. Conditions: ref not given; cited from earlier work.
Details of series [4]: method as in not given. Conditions: rebuttal comparison table; ref not given; cited from earlier work.
Another series deals with mouse P2X4 receptors. More on the design: method as in not given. Conditions: ref not given; cited from earlier work.
The target of series [5] is human P2X4 receptor. More on the design: method as in https://doi.org/10.1124/mol.114.096222. Conditions: patch clamp, HEK293; ref https://doi.org/10.1124/mol.114.096222; read-out: Potency (IC50 value) at the human P2X4 receptor; cited from earlier work.
Series [6] deals with T1, human solubilized and purified P2X4-E307T receptor mutant reconstituted into nanodiscs (Homo sapiens, UniProt Q99571, E307T/N184R/N75R).
T1 construct: The full-length human P2X4 receptor gene was subcloned into the pFastBac1 vector; Rho1D4 (fused by GSSG linker) (C); GSSG linker + human rhinovirus 3C protease site + 10x-His (C); made in house; host or cells: Sf9 insect cells (baculovirus)
T1 sequence (Q99571 whole entry N75R/N184R/E307T, the tested form may be a part): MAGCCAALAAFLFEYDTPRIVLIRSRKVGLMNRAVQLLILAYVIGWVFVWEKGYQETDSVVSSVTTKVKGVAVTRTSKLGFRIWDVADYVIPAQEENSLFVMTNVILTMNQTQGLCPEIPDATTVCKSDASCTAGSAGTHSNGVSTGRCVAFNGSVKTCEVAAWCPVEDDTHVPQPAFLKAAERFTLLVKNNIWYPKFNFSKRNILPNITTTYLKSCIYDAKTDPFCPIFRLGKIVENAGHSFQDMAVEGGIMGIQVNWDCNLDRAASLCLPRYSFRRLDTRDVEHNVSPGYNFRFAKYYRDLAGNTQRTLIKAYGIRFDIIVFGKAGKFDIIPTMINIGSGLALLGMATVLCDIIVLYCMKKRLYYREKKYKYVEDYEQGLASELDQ
The series can be described thus: Homologous competition binding vs [35S]ATPγS, purified P2X4-E307T receptor in nanodiscs. Conditions: 0.2 nM [35S]ATPγS; P2X4-E307T construct in nanodiscs. Here is the method: (§1) Radioligand binding studies were performed according to a published procedure. […] After an incubation of 1 h at room temperature, the incubation was terminated by rapid vacuum filtration through GF/B glass fiber filters using a Brandel 48-well harvester (Brandel). The filters were rinsed three times with ice-cold Tris-HCl buffer (50 mM, pH 7.4, 3-4 mL each) to separate unbound from bound radioligand. After punching out the filters and transferring them into scintillation vials, scintillation cocktail (2.5 mL, Ultima Gold®) was added. The samples were measured after 6 h of preincubation using a liquid scintillation counter for 1 min each. All data from calcium influx assays and radioligand binding studies were analyzed using Microsoft Excel. […] KD and Bmax values from radioligand binding assays were calculated by using the “one site-homologous” equation, implemented in GraphPad Prism version 8.0. The level of significance was calculated by a one-way ANOVA with Dunnett's post hoc test, in case there was a control group, and multiple comparison was required. […] The significance levels were defined as follows: *P < 0.05, **P < 0.01, ***P < 0.001, ****P < 0.0001.

A further series has as its target T2, human wt P2X4 receptor (Homo sapiens, UniProt Q99571).
T2 construct: expressed in transfected cells
T2 sequence (Q99571 1-388): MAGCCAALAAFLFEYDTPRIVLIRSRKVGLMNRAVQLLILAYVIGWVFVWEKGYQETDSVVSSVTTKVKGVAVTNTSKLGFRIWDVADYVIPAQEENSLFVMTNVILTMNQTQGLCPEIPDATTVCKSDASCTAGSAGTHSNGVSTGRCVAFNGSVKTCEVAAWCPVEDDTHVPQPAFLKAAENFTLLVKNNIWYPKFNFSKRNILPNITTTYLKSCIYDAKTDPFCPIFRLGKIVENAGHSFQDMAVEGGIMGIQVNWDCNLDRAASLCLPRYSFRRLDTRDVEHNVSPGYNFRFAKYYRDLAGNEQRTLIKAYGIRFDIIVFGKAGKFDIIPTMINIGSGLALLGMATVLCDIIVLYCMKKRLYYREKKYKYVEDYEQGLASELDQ
The series can be described thus: Homologous competition binding vs [35S]ATPγS, 1321N1 astrocytoma cell membranes. Conditions: 0.2 nM [35S]ATPγS, 1321N1 membranes. Here is the method: as §1

Turning to `NS(=O)(=O)c1cc(NC(=O)Cc2ccccc2)ccc1Oc1cccc(Cl)c1` [BAY-1797, N-4-(3-chlorophenoxy)-3-sulfamoylphenyl-2-phenylacetamide], the Oral bioavailability entry in series [1] is reported as “orally bioavailable”. The “Extent of receptor inhibition (no complete inhibition)” value in the series with human P2X4 receptor [2] is recorded as “about 80%”.
`CC(C)c1cc(Br)c(NC(=O)Nc2cccnc2)c(Br)c1` [BX430]: the values for the IC50 at human P2X4 receptor [3] and on human P2X4 receptor [5] were 4500 nM and 540 nM, respectively. For the same compound, in the series on rat P2X4 receptors, the “Potency at rat compared with human P2X4 receptors” value is “significantly weaker”. Also, the Lipophilicity entry in series [4] is reported as “Lipophilic”. Further, the “Potency at mouse compared with human P2X4 receptors” value in the series on mouse P2X4 receptors was “significantly weaker”.
Take `Nc1ncnc2c1ncn2[C@@H]1O[C@H](CO[P@](=O)(O)O[P@](=O)(O)O[P@@](=O)(O)S)[C@@H](O)[C@H]1O` [ATPγS]: in [6], the “Dissociation constant (KD value)” value was determined as 6.01 ± 0.81 nM. Moreover, the affinity at human wt P2X4 receptor, expressed as Kd, was 14.1 ± 2.7 nM.
